Measured values: patent US9260408B2, “Dihydroquinoline-2-one derivatives” (Hoffmann-La Roche Inc., priority 2011, dated 2016)
Counter-ions that a name gives are not always drawn.

Columns and labels:
human CYP11B2 = target: T1, human CYP11B2 (Homo sapiens, UniProt P19099); experiment: G-402 cellular enzyme assay, human CYP11B2 (aldosterone release, HTRF); type: cell-based; conditions: G-402 cells expressing human CYP11B2; 1 μM Deoxycorticosterone
T1 construct: expressed in transfected cells
T1 sequence (P19099 25-503): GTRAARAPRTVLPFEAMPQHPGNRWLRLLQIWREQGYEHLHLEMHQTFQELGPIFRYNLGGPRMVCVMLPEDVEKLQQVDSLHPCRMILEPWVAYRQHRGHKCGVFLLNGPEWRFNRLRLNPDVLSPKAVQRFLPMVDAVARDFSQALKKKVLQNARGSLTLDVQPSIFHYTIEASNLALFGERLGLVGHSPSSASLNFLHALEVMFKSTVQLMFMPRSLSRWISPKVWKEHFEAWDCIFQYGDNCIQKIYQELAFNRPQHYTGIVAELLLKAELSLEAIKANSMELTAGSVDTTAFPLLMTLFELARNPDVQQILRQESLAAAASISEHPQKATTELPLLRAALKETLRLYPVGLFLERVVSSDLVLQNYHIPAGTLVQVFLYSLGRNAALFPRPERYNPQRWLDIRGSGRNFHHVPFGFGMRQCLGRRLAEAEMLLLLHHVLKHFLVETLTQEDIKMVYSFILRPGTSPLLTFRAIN
Text: (§1) Herein we identified the use of the G-402 cell line as a host cell to ectopically express (transiently or stably) enzymes of the CYP11 family. Specifically we developed stable G-402 cells expressing ectopically human CYP11B1, human CYP11B2, human CYP11A1, cynomolgus CYP11B1 or cynomolgus CYP11B2 enzyme activity. Importantly the identified cell line G-402 expresses co-factors (adrenodoxin and adrenodoxin reductase) important for the activity of the CYP11 family and no relevant enzyme activity of the CYP11 family (in comparison to H295R cells) was detected in these cells. Therefore the G-402 cell line is uniquely suited as a host cell for the ectopic expression of enzymes from the CYP11 family.
(§2) G-402 cells can be obtained from ATCC(CRL-1440) and were originally derived from a renal leiomyoblastoma.
(§3) The expression plasmids contains the ORF for either human/cyno CYP11B1 or CYP11B2 under the control of a suitable promoter (CMV-promoter) and a suitable resistance marker (neomycin). Using standard techniques the expression plasmid is transfected into G-402 cells and these cells are then selected for expressing the given resistance markers. Individual cell-clones are then selected and assessed for displaying the desired enzymatic activity using 11-Deoxycorticosterone (Cyp11B2) or 11-Deoxycortisol (Cyp11B1) as a substrate.
(§4) G-402 cells expressing CYP11 constructs were established as described above and maintained in McCoy's 5a Medium Modified, ATCC Catalog No. 30-2007 containing 10% FCS and 400 μg/ml G418 (Geneticin) at 37° C. under an atmosphere of 5% CO2/95% air. Cellular enzyme assays were performed in DMEM/F12 medium containing 2.5% charcoal treated FCS and appropriate concentration of substrate (0.3-10 uM 11-Deoxycorticosterone, 11-Deoxycortisol or Corticosterone). For assaying enzymatic activity, cells were plated onto 96 well plates and incubated for 16 h. An aliquot of the supernatant is then transferred and analyzed for the concentration of the expected product (Aldosterone for CYP11B2; Cortisol for CYP11B1). The concentrations of these steroids can be determined using HTRF assays from CisBio analyzing either Aldosterone or Cortisol.
(§5) Inhibition of the release of produced steroids can be used as a measure of the respective enzyme inhibition by test compounds added during the cellular enzyme assay. The dose dependent inhibition of enzymatic activity by a compound is calculated by means of plotting added inhibitor concentrations (x-axes) vs. measured steroid/product level (y-axes). The inhibition is then calculated by fitting the following 4-parameter sigmoidal function (Morgan-Mercer-Flodin (MMF) model) to the raw data points using the least squares method:
(§6) [formula] wherein, A is the maximum y value, B is the EC50 factor determined using XLFit, C is the minimum y value and D is the slope value.
(§7) EC50 values for compounds claimed herein were tested with the G402-based assay system described. Cyp11B2 enzyme activity was tested in presence of 1 μM Deoxycorticosterone and variable amounts of inhibitors; Cyp11B1 enzyme activity was tested in presence of 1 μM Deoxycortisol and variable amounts of inhibitors.

human CYP11B1 = target: T2, human CYP11B1 (Homo sapiens, UniProt P15538); experiment: G-402 cellular enzyme assay, human CYP11B1 (cortisol release, HTRF); type: cell-based; conditions: G-402 cells expressing human CYP11B1; 1 μM Deoxycortisol
T2 construct: expressed in transfected cells
T2 sequence (P15538 25-503): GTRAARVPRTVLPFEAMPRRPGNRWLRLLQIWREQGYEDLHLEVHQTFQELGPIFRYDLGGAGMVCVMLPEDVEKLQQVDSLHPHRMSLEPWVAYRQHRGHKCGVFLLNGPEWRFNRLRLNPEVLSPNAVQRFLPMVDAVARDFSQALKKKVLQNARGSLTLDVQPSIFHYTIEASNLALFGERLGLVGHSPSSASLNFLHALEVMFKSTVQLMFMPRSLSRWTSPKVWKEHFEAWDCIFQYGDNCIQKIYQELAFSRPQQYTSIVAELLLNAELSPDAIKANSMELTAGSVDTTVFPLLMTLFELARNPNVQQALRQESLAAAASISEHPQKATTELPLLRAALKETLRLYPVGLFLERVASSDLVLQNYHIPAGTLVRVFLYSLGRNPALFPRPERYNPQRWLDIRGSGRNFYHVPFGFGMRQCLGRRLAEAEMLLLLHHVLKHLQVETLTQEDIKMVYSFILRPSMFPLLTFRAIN
Text: as §1, §2, §3, §4, §5, §6, §7

Row | SMILES | EC50 (human CYP11B2) | EC50 (human CYP11B1)
1 | CCC(=O)NCCOc1cncc(-c2ccc3c(c2)CCC(=O)N3C)c1 [Example 43, N-{2-[5-(1-Methyl-2-oxo-1,2,3,4-tetrahydro-quinolin-6-yl)-pyridin-3-yloxy]-ethyl}-propionamide] | 40 nM | 1560 nM
2 | CN1C(=O)CCc2cc(-c3cncc(NCCO)n3)c(F)cc21 [Example 26] | 18 nM | 570 nM
3 | CN1C(=O)CCc2cc(-c3cncc(CNS(=O)(=O)C4CC4)c3)ccc21 [Example 155, Cyclopropanesulfonic acid [5-(1-methyl-2-oxo-1,2,3,4-tetrahydro-quinolin-6-yl)-pyridin-3-ylmethyl]-amide] | 47 nM | 589 nM
4 | COc1ncc(C(=O)NCc2cncc(-c3ccc4c(c3)CCC(=O)N4C)c2)cn1 [Example 82] | 8 nM | 20 nM
5 | CCS(=O)(=O)N1CC[C@H]1COc1cncc(-c2ccc3c(c2)CCC(=O)N3C)c1 [Example 165, 6-[5-((S)-1-Ethanesulfonyl-azetidin-2-ylmethoxy)-pyridin-3-yl]-1-methyl-3,4-dihydro-1H-quinolin-2-one] | 13 nM | 494 nM
6 | Cc1noc(C)c1C(=O)NC(C)c1cncc(-c2ccc3c(c2)CCC(=O)N3C)c1 (single isomer, unassigned) [Example 135] | 6 nM | 163 nM
7 | COC[C@@H]1CCCN1Cc1cncc(-c2ccc3c(c2)CCC(=O)N3C)c1 [Example 21] | 21 nM | 260 nM
8 | CN1C(=O)CCc2cc(-c3cncc(CNC(=O)c4ncccc4Cl)c3)ccc21 [Example 118, 3-Chloro-pyridine-2-carboxylic acid [5-(1-methyl-2-oxo-1,2,3,4-tetrahydro-quinolin-6-yl)-pyridin-3-ylmethyl]-amide] | 4 nM | 682 nM
9 | CN1C(=O)CCc2cc(-c3cncc(CN4CCCS4(=O)=O)c3)ccc21 [Example 179, 6-[5-(1,1-Dioxo-1λ^6-isothiazolidin-2-ylmethyl)-pyridin-3-yl]-1-methyl-3,4-dihydro-1H-quinolin-2-one] | 12 nM | 169 nM
10 | CN1C(=O)CCc2cc(-c3cncc(CNS(=O)(=O)c4cccc(Cl)c4)c3)ccc21 [Example 152, 3-Chloro-N-[5-(1-methyl-2-oxo-1,2,3,4-tetrahydro-quinolin-6-yl)-pyridin-3-ylmethyl]-benzenesulfonamide] | 154 nM | 4750 nM
11 | CN1C(=O)CCc2cc(-c3cncc(N4CCC[C@H]4CO)c3)ccc21 [Example 5, 6-[5-((S)-2-Hydroxymethyl-pyrrolidin-1-yl)-pyridin-3-yl]-1-methyl-3,4-dihydro-1H-quinolin-2-one] | 19 nM | 1080 nM
12 | Cc1noc(C)c1C(=O)NCc1cncc(-c2cc3c(cc2F)N(C)C(=O)CC3)c1 [Example 127] | 12 nM | 400 nM
13 | CN1C(=O)CCc2cc(-c3cncc(CN4CCCCC4=O)c3)ccc21 [Example 19] | 23 nM | 800 nM
14 | CN1C(=O)CCc2cc(-c3cncc(CN)c3)c(F)cc21 [Example 73, 6-(5-Aminomethyl-pyridin-3-yl)-7-fluoro-1-methyl-3,4-dihydro-1H-quinolin-2-one] | 17 nM | 575 nM
15 | CC(N)c1cncc(-c2ccc3c(c2)CCC(=O)N3C)c1 (single isomer, unassigned) [Example 64, 6-[5-((S or R)-1-Amino-ethyl)-pyridin-3-yl]-1-methyl-3,4-dihydro-1H-quinolin-2-one hydrochloride] | 423 nM | 12300 nM
16 | CN1C(=O)CCc2cc(-c3cncc(C4(N)COC4)c3)ccc21 [Example 69, 6-[5-(3-Amino-oxetan-3-yl)-pyridin-3-yl]-1-methyl-3,4-dihydro-1H-quinolin-2-one hydrochloride] | 411 nM | 3490 nM
17 | CCC(=O)N1CC[C@H]1COc1cncc(-c2ccc3c(c2)CCC(=O)N3C)c1 [Example 94] | 23 nM | 1340 nM

Now from value to compound:

Row | EC50 (human CYP11B2) | EC50 (human CYP11B1) | SMILES
18 | 2 nM | 40 nM | CN1C(=O)CCc2cc(-c3cncc(CNC(=O)c4ncccc4Cl)c3Cl)ccc21 [Example 220, 3-Chloro-pyridine-2-carboxylic acid [4-chloro-5-(1-methyl-2-oxo-1,2,3,4-tetrahydro-quinolin-6-yl)-pyridin-3-ylmethyl]-amide]
19 | 8 nM | 158 nM | CCOC(=O)N1CC[C@H](Oc2cncc(-c3ccc4c(c3)CCC(=O)N4C)c2)C1 [Example 256, (S)-3-[5-(1-Methyl-2-oxo-1,2,3,4-tetrahydro-quinolin-6-yl)-pyridin-3-yloxy]-pyrrolidine-1-carboxylic acid ethyl ester]
20 | 41 nM | 1700 nM | CCS(=O)(=O)NCc1cncc(-c2ccc3c(c2)CCC(=O)N3C)c1C [Example 194, Ethanesulfonic acid [4-methyl-5-(1-methyl-2-oxo-1,2,3,4-tetrahydro-quinolin-6-yl)-pyridin-3-ylmethyl]-amide]
21 | 27 nM | 705 nM | CCN(C(C)c1cncc(-c2ccc3c(c2)CCC(=O)N3C)c1)S(=O)(=O)CC (racemic) [Example 187, (rac)-Ethanesulfonic acid ethyl-{1-[5-(1-methyl-2-oxo-1,2,3,4-tetrahydro-quinolin-6-yl)-pyridin-3-yl]-ethyl}-amide]
22 | 26 nM | 468 nM | Cc1c(-c2cc3c(cc2F)N(C)C(=O)CC3)cncc1C(C)N[S@+]([O-])C(C)(C)C (single isomer, unassigned) [Example 252, (R)-2-Methyl-propane-2-sulfinic acid {(R or S)-1-[5-(7-fluoro-1-methyl-2-oxo-1,2,3,4-tetrahydro-quinolin-6-yl)-4-methyl-pyridin-3-yl]-ethyl}-amide]
23 | 97 nM | 4030 nM | Cc1noc(C)c1C(=O)NCc1cncc(-c2cc(Cl)c3c(c2)CCC(=O)N3)c1 [Example 205, 3,5-Dimethyl-isoxazole-4-carboxylic acid [5-(8-chloro-2-oxo-1,2,3,4-tetrahydro-quinolin-6-yl)-pyridin-3-ylmethyl]-amide]
24 | 22 nM | 1010 nM | CCS(=O)(=O)NCc1cncc(-c2ccc3c(c2)CCC(=O)N3C)c1Cl [Example 193, Ethanesulfonic acid [4-chloro-5-(1-methyl-2-oxo-1,2,3,4-tetrahydro-quinolin-6-yl)-pyridin-3-ylmethyl]-amide]
25 | 6 nM | 691 nM | Cc1c(CN[S@+]([O-])C(C)(C)C)cncc1-c1cc2c(cc1F)N(C)C(=O)CC2 [Example 225, (R)-2-Methyl-propane-2-sulfinic acid [5-(7-fluoro-1-methyl-2-oxo-1,2,3,4-tetrahydro-quinolin-6-yl)-4-methyl-pyridin-3-ylmethyl]-amide]
